In patent US8148391B2 (Cephalon, Inc., priority 2006, dated 2012):
Where two headings read alike, the source gives them in different places. Each block holds one compound with its values, some of them ahead of it.

Legend:
[1] = target: T1, c-Met (cytoplasmic domain) (Homo sapiens, UniProt P08581); assay: c-Met Kinase Assay (same methods as for ALK, with modifications); assay type: biochemical
T1 construct: 10 ng/mL c-Met (cytoplasmic domain, Invitrogen Corporation #PV3143); purchased Invitrogen Corporation PV3143
Summary of the method: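 IC50 values were fitted by variable-slope sigmoidal regression of percent inhibition against log compound concentration. Phosphorylation was read with Eu-N1 PT66 antibody after a 15 min, 37 °C reaction. The reaction was initiated with 10 ng/mL c-Met cytoplasmic domain on wells coated with 10 μg/mL PLC-γ in TBS.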

[2] = target: T2, baculovirus-expressed ALK (Homo sapiens, UniProt Q9UM73); assay: ALK Kinase Assay (ELISA-type, time-resolved fluorescence); assay type: biochemical
T2 construct: host or cells: baculovirus expression system
Summary of the method: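 Wells were coated with phospholipase C-γ at 10 μg/mL in Tris-buffered saline. Adding 30 ng/ml enzyme started the reaction, which ran at 37° C for 15 minutes before Eu-N1 PT66 antibody detection. Percent inhibition versus log10 concentration gave IC50 by variable-slope fit.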

[3] = 1 μM ATP (Km level), read-out: cMet Activity (c-Met Kinase Inhibition, IC50)
[4] = 1 μM ATP (Km level), read-out: ALK Activity (ALK Kinase Inhibition, IC50)
[5] = c-Met kinase inhibition, 1 μM ATP, read-out: cMet Activity
[6] = ALK kinase inhibition, 1 μM ATP, read-out: ALK Activity
[7] = c-Met kinase inhibition, 1 μM ATP (Km level), read-out: cMet Activity
[8] = ALK kinase inhibition, 1 μM ATP (Km level), read-out: ALK Activity
[9] = 1 μM ATP (Km level), 10 ng/mL c-Met, read-out: cMet Activity (c-Met kinase inhibition, IC50 class)
[10] = 1 μM ATP (Km level), 30 ng/ml ALK, 37° C., 15 minutes, read-out: ALK Activity (ALK kinase inhibition, IC50 class)

T2 sequence (Q9UM73 19-1620): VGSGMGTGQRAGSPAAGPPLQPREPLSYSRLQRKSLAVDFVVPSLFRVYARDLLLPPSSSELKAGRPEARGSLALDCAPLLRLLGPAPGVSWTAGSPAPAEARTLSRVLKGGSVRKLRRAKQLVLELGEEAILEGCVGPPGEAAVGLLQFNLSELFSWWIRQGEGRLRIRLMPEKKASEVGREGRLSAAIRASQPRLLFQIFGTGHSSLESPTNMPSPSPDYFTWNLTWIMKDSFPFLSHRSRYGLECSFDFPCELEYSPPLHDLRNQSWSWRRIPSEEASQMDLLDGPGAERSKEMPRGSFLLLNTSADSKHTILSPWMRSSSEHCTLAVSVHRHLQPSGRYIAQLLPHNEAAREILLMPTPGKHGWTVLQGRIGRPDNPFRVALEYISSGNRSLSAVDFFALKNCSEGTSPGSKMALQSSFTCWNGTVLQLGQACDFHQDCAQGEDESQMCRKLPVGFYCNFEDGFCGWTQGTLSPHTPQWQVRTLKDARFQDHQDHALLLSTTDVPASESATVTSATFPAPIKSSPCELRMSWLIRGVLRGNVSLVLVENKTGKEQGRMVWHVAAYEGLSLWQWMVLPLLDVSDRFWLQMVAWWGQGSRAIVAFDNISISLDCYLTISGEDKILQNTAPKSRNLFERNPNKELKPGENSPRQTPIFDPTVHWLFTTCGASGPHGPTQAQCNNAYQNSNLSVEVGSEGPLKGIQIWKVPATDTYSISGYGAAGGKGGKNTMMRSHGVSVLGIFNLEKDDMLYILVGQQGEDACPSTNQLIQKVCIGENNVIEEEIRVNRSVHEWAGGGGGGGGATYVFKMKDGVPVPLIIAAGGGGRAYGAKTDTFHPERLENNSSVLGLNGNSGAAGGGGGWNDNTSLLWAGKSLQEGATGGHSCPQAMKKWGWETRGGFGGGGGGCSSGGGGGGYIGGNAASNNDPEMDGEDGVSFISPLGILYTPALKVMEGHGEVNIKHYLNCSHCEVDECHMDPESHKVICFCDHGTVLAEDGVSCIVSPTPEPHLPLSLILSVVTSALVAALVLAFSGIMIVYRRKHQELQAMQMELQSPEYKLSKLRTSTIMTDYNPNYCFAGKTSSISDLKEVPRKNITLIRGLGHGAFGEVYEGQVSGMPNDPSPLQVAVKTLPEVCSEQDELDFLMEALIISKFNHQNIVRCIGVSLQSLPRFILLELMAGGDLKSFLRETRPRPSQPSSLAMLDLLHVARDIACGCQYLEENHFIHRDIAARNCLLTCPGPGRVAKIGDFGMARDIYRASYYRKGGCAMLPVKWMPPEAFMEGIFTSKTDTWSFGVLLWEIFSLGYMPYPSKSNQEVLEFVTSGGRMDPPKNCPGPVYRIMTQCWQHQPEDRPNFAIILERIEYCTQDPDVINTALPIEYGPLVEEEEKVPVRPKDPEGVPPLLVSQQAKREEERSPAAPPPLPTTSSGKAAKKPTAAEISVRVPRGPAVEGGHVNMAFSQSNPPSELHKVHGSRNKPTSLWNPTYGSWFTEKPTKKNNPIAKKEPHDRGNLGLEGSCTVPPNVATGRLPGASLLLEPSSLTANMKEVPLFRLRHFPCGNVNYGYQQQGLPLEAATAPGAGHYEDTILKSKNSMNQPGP
T1 sequence (P08581 956-1390 limits assumed): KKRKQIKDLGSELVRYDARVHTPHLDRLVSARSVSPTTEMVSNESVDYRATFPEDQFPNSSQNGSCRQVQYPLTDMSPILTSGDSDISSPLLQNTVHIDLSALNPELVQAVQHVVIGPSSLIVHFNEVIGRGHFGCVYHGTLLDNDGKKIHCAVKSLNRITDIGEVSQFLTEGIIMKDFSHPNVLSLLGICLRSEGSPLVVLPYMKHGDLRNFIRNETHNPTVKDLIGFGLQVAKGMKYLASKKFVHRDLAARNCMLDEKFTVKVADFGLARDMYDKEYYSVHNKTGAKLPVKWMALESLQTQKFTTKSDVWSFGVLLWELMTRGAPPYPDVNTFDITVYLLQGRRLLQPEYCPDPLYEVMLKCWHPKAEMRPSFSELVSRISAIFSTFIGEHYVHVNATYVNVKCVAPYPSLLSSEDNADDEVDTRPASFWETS

SMILES: COc1c(Nc2ncc(Cl)c(Nc3ccccc3S(=O)(=O)N(C)C)n2)ccc2c1CCC(NCC(F)(F)F)CC2 (centres unmarked) [Example 684, 2-{5-Chloro-2-[1-methoxy-7-(2,2,2-trifluoro-ethylamino)-6,7,8,9-tetrahydro-5H-benzocyclohepten-2-ylamino]-pyrimidin-4-ylamino}-N,N-dimethyl-benzenesulfonamide]
IC50 [1, 3]: > 10 µM | IC50 [2, 4]: < 0.1 µM

SMILES: CC1(C)CCCOc2c(Nc3ncc(Cl)c(Nc4ccccc4C(=O)NCCC#N)n3)cccc21 [Example 877, 2-[5-Chloro-2-(5,5-dimethyl-2,3,4,5-tetrahydro-benzo[b]oxepin-9-ylamino)-pyrimidin-4-ylamino]-N-(2-cyano-ethyl)-benzamide]
IC50 [1, 3]: > 10 µM | IC50 [2, 4]: 0.1 to 1 µM

SMILES: COc1c(Nc2ncc(Cl)c(Nc3ccccc3S(=O)(=O)N3CC[C@H](O)C3)n2)ccc2c1CCCC(NCCO)C2 (stereo partly drawn) [Example 963, (S)-1-(2-{5-Chloro-2-[6-(2-hydroxy-ethylamino)-1-methoxy-6,7,8,9-tetrahydro-5H-benzocyclohepten-2-ylamino]-pyrimidin-4-ylamino}-benzenesulfonyl)-pyrrolidin-3-ol]
IC50 [1, 3]: 1 to 10 µM | IC50 [2, 4]: < 0.1 µM

SMILES: COc1cc(N2CCOCC2)ccc1Nc1nc(Nc2ccc3c(c2)N(C(C)C)CCCC3(C)C)ncc1Cl [Example 1629, 5-Chloro-N*2*-(1-isopropyl-5,5-dimethyl-2,3,4,5-tetrahydro-1H-benzo[b]azepin-8-yl)-N*4*-(2-methoxy-4-morpholin-4-yl-phenyl)-pyrimidine-2,4-diamine]
IC50 [1, 5]: > 10 µM | IC50 [2, 6]: 0.1 to 1 µM

SMILES: C#CCNC(=O)c1cccc(F)c1Nc1nc(Nc2ccc3c(c2)OCCCN3C(=O)OC2CCCN(C)C2)ncc1Cl (centres unmarked) [Example 1439, 3-[5-Chloro-4-(2-fluoro-6-prop-2-ynylcarbamoyl-phenylamino)-pyrimidin-2-ylamino]-7,8-dihydro-6H-5-oxa-9-aza-benzocycloheptene-9-carboxylic acid 1-methyl-piperidin-3-yl ester]
IC50 [1, 5]: 0.1 to 1 µM | IC50 [2, 6]: 0.1 to 1 µM

SMILES: COc1cc2c(cc1Nc1ncc(Cl)c(Nc3ccc(N(C)C)cc3OC)n1)CCN(CC(=O)N1CCN(C)CC1)CC2 [Example 1540, 2-{7-[5-Chloro-4-(4-dimethylamino-2-methoxy-phenylamino)-pyrimidin-2-ylamino]-8-methoxy-1,2,4,5-tetrahydro-3-benzazepin-3-yl}-1-(4-methyl-piperazin-1-yl)-ethanone]
IC50 [1, 5]: > 10 µM | IC50 [2, 6]: < 0.1 µM

SMILES: COc1cc2c(cc1Nc1ncc(Cl)c(Nc3cccnc3OC)n1)CCN(CC(=O)N(C)C)CC2 [Example 1190, 2-{7-[5-Chloro-4-(2-methoxy-pyridin-3-ylamino)-pyrimidin-2-ylamino]-8-methoxy-1,2,4,5-tetrahydro-benzo[d]azepin-3-yl}-N,N-dimethyl-acetamide]
IC50 [1, 9]: > 10 µM | IC50 [2, 10]: < 0.1 µM

SMILES: CCNC(=O)c1ccccc1Nc1nc(Nc2cc3c(cc2OC)CN(Cc2ccccc2)CC(=O)N3)ncc1Cl [Example 1653, 2-[2-(4-Benzyl-7-methoxy-2-oxo-2,3,4,5-tetrahydro-1H-benzo[e][1,4]diazepin-8-ylamino)-5-chloro-pyrimidin-4-ylamino]-N-ethyl-benzamide]
IC50 [1, 5]: 1 to 10 µM | IC50 [2, 6]: < 0.1 µM

SMILES: COc1cc2c(cc1Nc1ncc(Cl)c(N[C@H]3[C@@H](C(N)=O)[C@@H]4C=C[C@H]3C4)n1)CCN(CC(=O)N1CCCC1)CC2 [Example 1159, (1S,2S,3R,4R)-3-{5-Chloro-2-[8-methoxy-3-(2-oxo-2-pyrrolidin-1-yl-ethyl)-2,3,4,5-tetrahydro-1H-benzo[d]azepin-7-ylamino]-pyrimidin-4-ylamino}-bicyclo[2.2.1]hept-5-ene-2-carboxylic acid amide]
IC50 [1, 9]: > 10 µM | IC50 [2, 10]: < 0.1 µM

SMILES: CNC(=O)c1sccc1Nc1nc(Nc2ccc3c(c2)NC(=O)CCC3)ncc1Cl [Example 1477, 3-[5-Chloro-2-(2-oxo-2,3,4,5-tetrahydro-1H-benzo[b]azepin-8-ylamino)-pyrimidin-4-ylamino]-thiophene-2-carboxylic acid methylamide]
IC50 [1, 5]: 0.1 to 1 µM | IC50 [2, 6]: 0.1 to 1 µM

SMILES: COc1cc2c(cc1Nc1ncc(Cl)c(Nc3ccc(N4CCOCC4)cc3OC)n1)CCN(CC(F)(F)F)CC2 [Example 249, 5-Chloro-N*4*-(2-methoxy-4-morpholin-4-yl-phenyl)-N*2*-[8-methoxy-3-(2,2,2-trifluoro-ethyl)-2,3,4,5-tetrahydro-1H-benzo[d]azepin-7-yl]-pyrimidine-2,4-diamine]
IC50 [1, 7]: > 10 µM | IC50 [2, 8]: < 0.1 µM

SMILES: CCN1CC(=O)N(CC)c2cc(Nc3ncc(Cl)c(Nc4c(F)cccc4C(=O)NC)n3)ccc2C1 [Example 1870, 2-[5-Chloro-2-(1,4-diethyl-2-oxo-2,3,4,5-tetrahydro-1H-benzo[e][1,4]diazepin-8-ylamino)-pyrimidin-4-ylamino]-3-fluoro-N-methyl-benzamide]
IC50 [1, 5]: < 0.1 µM | IC50 [2, 6]: 0.1 to 1 µM

SMILES: C#CCNC(=O)c1cccc(F)c1Nc1nc(Nc2ccc3c(c2)N(C(=O)CN2C(=O)c4ccccc4C2=O)CCCC3(C)C)ncc1Cl [Example 1618, 2-(5-Chloro-2-{1-[2-(1,3-dioxo-1,3-dihydro-isoindol-2-yl)-acetyl]-5,5-dimethyl-2,3,4,5-tetrahydro-1H-benzo[b]azepin-8-ylamino}-pyrimidin-4-ylamino)-3-fluoro-N-prop-2-ynyl-benzamide]
IC50 [1, 5]: < 0.1 µM | IC50 [2, 6]: > 10 µM

SMILES: CCOC(=O)N1C2CCC1c1cc(C(=O)OC)cc(Nc3ncc(Cl)c(Nc4ccccc4C(=O)NC)n3)c1C2 (centres unmarked) [Example 78, 6-[5-Chloro-4-(2-methylcarbamoyl-phenylamino)-pyrimidin-2-ylamino]-12-aza-tricyclo[7.2.1.0*2,7*]dodeca-2(7),3,5-triene-4,12-dicarboxylic acid 12-ethyl ester 4-methyl ester]
IC50 [1, 7]: 0.1 to 1 µM | IC50 [2, 8]: < 0.1 µM

Next, values leading:

IC50 [1, 3]: 1 to 10 µM | IC50 [2, 4]: 0.1 to 1 µM
SMILES: CNC(=O)c1cccc(Nc2nc(Nc3ccc4c(c3)CCN(CCOC)CC4)ncc2Cl)c1 [Example 673, 3-{5-Chloro-2-[3-(2-methoxy-ethyl)-2,3,4,5-tetrahydro-1H-benzo[d]azepin-7-ylamino]-pyrimidin-4-ylamino}-N-methyl-benzamide]

IC50 [1, 3]: 1 to 10 µM | IC50 [2, 4]: < 0.1 µM
SMILES: COc1c(Nc2ncc(Cl)c(N[C@H]3[C@@H](C(N)=O)[C@@H]4C=C[C@H]3C4)n2)ccc2c1CCC(N1CCCC(O)C1)CC2 (stereo partly drawn) [Example 909, (1S,2S,3R,4R)-3-{5-Chloro-2-[7-(3-hydroxy-piperidin-1-yl)-1-methoxy-6,7,8,9-tetrahydro-5H-benzocyclohepten-2-ylamino]-pyrimidin-4-ylamino}-bicyclo[2.2.1]hept-5-ene-2-carboxylic acid amide]

IC50 [1, 7]: > 10 µM | IC50 [2, 8]: 1 to 10 µM
SMILES: COCCN1CCc2ccc(OC)c(Nc3ncc(Cl)c(Nc4ccc(N5CCOCC5)cc4OC)n3)c2CC1 [Example 246, 5-Chloro-N(2)-[7-methoxy-3-(2-methoxy-ethyl)-2,3,4,5-tetrahydro-1H-benzo[d]azepin-6-yl]-N(4)-(2-methoxy-4-morpholin-4-yl-phenyl)-pyrimidine-2,4-diamine]

IC50 [1, 9]: < 0.1 µM | IC50 [2, 10]: 1 to 10 µM
SMILES: CNC(=O)c1sccc1Nc1nc(Nc2ccc3c(c2)NC(=O)C(NC(C)=O)CC3(C)C)ncc1Cl (centres unmarked) [Example 1291, 3-[2-(3-Acetylamino-5,5-dimethyl-2-oxo-2,3,4,5-tetrahydro-1H-1-benzazepin-8-ylamino)-5-chloro-pyrimidin-4-ylamino]-thiophene-2-carboxylic acid methylamide]

IC50 [1, 7]: 1 to 10 µM | IC50 [2, 8]: 0.1 to 1 µM
SMILES: CC(C)N1CC2CC(C1)c1cc(Nc3ncc(Cl)c(N[C@@H]4CCCC[C@H]4NS(C)(=O)=O)n3)ccc12 (stereo partly drawn) [Example 165, N-{(1R,2R)-2-[5-Chloro-2-(10-isopropyl-10-aza-tricyclo[6.3.1.0*2,7*]dodeca-2,4,6-trien-4-ylamino)-pyrimidin-4-ylamino]-cyclohexyl}-methanesulfonamide]

IC50 [1, 9]: 1 to 10 µM | IC50 [2, 10]: < 0.1 µM
SMILES: COc1cc2c(cc1Nc1ncc(Cl)c(Nc3ccccc3S(=O)(=O)N3CCC(O)C3)n1)CCC(N1CCN(C)CC1)CC2 (centres unmarked) [Example 1098, 1-(2-{5-Chloro-2-[3-methoxy-7-(4-methyl-piperazin-1-yl)-6,7,8,9-tetrahydro-5H-benzocyclohepten-2-ylamino]-pyrimidin-4-ylamino}-benzenesulfonyl)-pyrrolidin-3-ol]

IC50 [1, 7]: < 0.1 µM | IC50 [2, 8]: < 0.1 µM
SMILES: CNC(=O)c1ccccc1Nc1nc(Nc2ccc3c(c2)C(=O)NCCN3C)ncc1Cl [Example 428, 2-[5-Chloro-2-(1-methyl-5-oxo-2,3,4,5-tetrahydro-1H-benzo[e][1,4]diazepin-7-ylamino)-pyrimidin-4-ylamino]-N-methylbenzamide]

IC50 [1, 9]: > 10 µM | IC50 [2, 10]: 0.1 to 1 µM
SMILES: COc1ccc2c(c1Nc1ncc(Cl)c(Nc3ccccc3-n3cccn3)n1)CCC(NCC(F)F)CC2 (centres unmarked) [Example 1076, 5-Chloro-N*2*-[7-(2,2-difluoro-ethylamino)-2-methoxy-6,7,8,9-tetrahydro-5H-benzocyclohepten-1-yl]-N*4*-(2-pyrazol-1-yl-phenyl)-pyrimidine-2,4-diamine]
